# In patent US7883846B2, “Heterologous stimulus-gated ion channels and methods of using same” (priority 2002, dated 2011):
# What was measured:
# [1] = test system: rat P2X2; assay: Pharmacological stimulation of transfected hippocampal neurons, whole-cell patch clamp (P2X2); type: cell-based; settings: 50 μM ATP, 1-ml bolus, whole-cell current clamp, 50 μM AP-5 plus 10 μM CNQX
# Protocol: Three plasmid species were prepared, each species containing a stimulus-gated ion channel (rat TRPV1, rat TRPM8 or rat P2X2) under the control of the CMV promoter in pCI-fluor, a derivative of the mammalian expression vector pCI-neo (Promega). To create pCI-fluor, the aminoglycoside phosphotransferase coding sequence of pCI-neo was replaced with that of EGFP bearing a 20-amino acid N-terminal GAP43 tag (Zemelman, Lee et al. 2002). Rat TRPV1 and rat TRPM8 were expressed as monomers; rat P2X2 subunits were linked into covalent trimers via tandem repeats of the tripeptide -Ser-Gly-Gly-.
# Hippocampal neurons, obtained from E19 rats and grown in dissociated cultures, were exposed to 4.2 μg cm^−2 of calcium phosphate-precipitated plasmid DNA as described in Example 1 (pH 7.08) for 20 min to allow plasmid uptake. Transfections were performed on day 8 after plating; immunocytochemical analyses and electrophysiological recordings on days 6-10 after transfection. […]
# (§1) Transfected neurons in cultures and infected neurons in brain slices were identified by GAP43-EGFP fluorescence and recorded in the whole-cell patch-clamp configuration. […] Membrane potentials and transmembrane currents were recorded with an Axoclamp-2B amplifier (Axon Instruments) in bridge and continuous single-electrode voltage-clamp mode, respectively, and digitized at 5 kHz without filtering (Digidata 1200, Axon Instruments). […]
# [2] = test system: hippocampal neurons lacking the cognate exogenous receptor; assay: Stimulation of hippocampal neurons lacking the cognate exogenous receptor / untransfected neurons; type: cell-based, rat; settings: 50 nM capsaicin, 100 μM menthol, 50 μM ATP; off-diagonal receptor-agonist combinations
# [3] = target: T1, TRPV1 (Rattus norvegicus, UniProt O35433); type: cell-based
# T1 construct: expressed in transfected cells; host or cells: dissociated hippocampal neurons from E19 rats, calcium phosphate transfection of pCI-fluor plasmid
# [4] = target: T2, TRPV1 expressed ectopically in nociceptor neurons of C. elegans (Rattus norvegicus, UniProt O35433); settings: wild-type animals lack the behavior; cited from earlier work
# T2 construct: host or cells: transgenic C. elegans nociceptor neurons
# [5] = target: T3, rat TRPV1 (Rattus norvegicus, UniProt O35433); assay: Pharmacological stimulation of transfected hippocampal neurons, whole-cell patch clamp (TRPV1); type: cell-based
# T3 construct: expressed in transfected cells; host or cells: dissociated hippocampal neurons from E19 rats, calcium phosphate transfection of pCI-fluor plasmid
# Protocol: (§2) Three plasmid species were prepared, each species containing a stimulus-gated ion channel (rat TRPV1, rat TRPM8 or rat P2X2) under the control of the CMV promoter in pCI-fluor, a derivative of the mammalian expression vector pCI-neo (Promega). To create pCI-fluor, the aminoglycoside phosphotransferase coding sequence of pCI-neo was replaced with that of EGFP bearing a 20-amino acid N-terminal GAP43 tag (Zemelman, Lee et al. 2002). Rat TRPV1 and rat TRPM8 were expressed as monomers; rat P2X2 subunits were linked into covalent trimers via tandem repeats of the tripeptide -Ser-Gly-Gly-. […]
# as §1
# (§3) To determine dose-response relationships, the peak amplitudes as well as the integrated charges carried by depolarizing currents at different agonist concentrations were measured under whole-cell voltage clamp, at a constant holding potential of −65 mV.
# [6] = target: T4, rat TRPM8 (Rattus norvegicus, UniProt Q8R455); assay: Pharmacological stimulation of transfected hippocampal neurons, whole-cell patch clamp (TRPM8); type: cell-based
# T4 construct: expressed in transfected cells; host or cells: dissociated hippocampal neurons from E19 rats, calcium phosphate transfection of pCI-fluor plasmid
# Protocol: as §2, §1, §3
# [7] = test system: P2X2; assay: Photostimulation of P2X2-expressing neurons with caged agonist; type: cell-based, rat
# [8] = 1 mM DMNPE-ATP, 1-s light pulse, mean±s.d., n=16
# Chain of P2X2 (P49653 whole entry): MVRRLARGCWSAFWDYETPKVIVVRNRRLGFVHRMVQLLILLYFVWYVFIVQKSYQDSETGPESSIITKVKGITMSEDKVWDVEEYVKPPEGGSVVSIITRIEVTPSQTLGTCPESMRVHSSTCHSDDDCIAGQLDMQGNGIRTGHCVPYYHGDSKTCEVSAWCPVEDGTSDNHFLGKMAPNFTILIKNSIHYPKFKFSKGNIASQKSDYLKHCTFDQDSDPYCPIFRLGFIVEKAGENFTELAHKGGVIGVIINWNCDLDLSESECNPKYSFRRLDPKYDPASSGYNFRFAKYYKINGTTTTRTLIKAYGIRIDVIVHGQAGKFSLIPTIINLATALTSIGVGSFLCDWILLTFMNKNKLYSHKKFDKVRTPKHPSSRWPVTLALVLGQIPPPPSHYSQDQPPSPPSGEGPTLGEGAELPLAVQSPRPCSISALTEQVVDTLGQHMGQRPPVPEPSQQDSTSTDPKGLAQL
# T1 sequence (O35433 whole entry): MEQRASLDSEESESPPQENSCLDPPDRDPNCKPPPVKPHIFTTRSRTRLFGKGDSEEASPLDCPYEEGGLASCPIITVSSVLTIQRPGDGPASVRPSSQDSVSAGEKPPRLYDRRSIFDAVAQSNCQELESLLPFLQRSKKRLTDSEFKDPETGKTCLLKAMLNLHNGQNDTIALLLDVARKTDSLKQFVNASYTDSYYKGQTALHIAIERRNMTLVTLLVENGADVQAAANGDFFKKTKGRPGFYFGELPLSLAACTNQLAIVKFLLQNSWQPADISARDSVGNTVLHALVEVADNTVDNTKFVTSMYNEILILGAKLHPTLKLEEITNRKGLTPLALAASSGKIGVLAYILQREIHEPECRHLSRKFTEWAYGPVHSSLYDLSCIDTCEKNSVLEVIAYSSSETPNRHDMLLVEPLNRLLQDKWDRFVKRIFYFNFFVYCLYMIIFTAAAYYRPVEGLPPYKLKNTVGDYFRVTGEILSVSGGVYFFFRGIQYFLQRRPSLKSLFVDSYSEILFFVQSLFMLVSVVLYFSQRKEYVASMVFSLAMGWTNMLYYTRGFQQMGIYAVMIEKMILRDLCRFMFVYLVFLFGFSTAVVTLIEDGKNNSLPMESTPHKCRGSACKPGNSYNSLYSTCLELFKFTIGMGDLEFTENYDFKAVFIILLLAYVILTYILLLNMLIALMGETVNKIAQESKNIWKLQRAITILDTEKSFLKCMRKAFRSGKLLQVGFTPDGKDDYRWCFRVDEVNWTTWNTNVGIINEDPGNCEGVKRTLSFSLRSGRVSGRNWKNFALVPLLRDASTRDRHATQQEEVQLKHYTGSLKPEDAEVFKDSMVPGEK
# T4 sequence (Q8R455 whole entry): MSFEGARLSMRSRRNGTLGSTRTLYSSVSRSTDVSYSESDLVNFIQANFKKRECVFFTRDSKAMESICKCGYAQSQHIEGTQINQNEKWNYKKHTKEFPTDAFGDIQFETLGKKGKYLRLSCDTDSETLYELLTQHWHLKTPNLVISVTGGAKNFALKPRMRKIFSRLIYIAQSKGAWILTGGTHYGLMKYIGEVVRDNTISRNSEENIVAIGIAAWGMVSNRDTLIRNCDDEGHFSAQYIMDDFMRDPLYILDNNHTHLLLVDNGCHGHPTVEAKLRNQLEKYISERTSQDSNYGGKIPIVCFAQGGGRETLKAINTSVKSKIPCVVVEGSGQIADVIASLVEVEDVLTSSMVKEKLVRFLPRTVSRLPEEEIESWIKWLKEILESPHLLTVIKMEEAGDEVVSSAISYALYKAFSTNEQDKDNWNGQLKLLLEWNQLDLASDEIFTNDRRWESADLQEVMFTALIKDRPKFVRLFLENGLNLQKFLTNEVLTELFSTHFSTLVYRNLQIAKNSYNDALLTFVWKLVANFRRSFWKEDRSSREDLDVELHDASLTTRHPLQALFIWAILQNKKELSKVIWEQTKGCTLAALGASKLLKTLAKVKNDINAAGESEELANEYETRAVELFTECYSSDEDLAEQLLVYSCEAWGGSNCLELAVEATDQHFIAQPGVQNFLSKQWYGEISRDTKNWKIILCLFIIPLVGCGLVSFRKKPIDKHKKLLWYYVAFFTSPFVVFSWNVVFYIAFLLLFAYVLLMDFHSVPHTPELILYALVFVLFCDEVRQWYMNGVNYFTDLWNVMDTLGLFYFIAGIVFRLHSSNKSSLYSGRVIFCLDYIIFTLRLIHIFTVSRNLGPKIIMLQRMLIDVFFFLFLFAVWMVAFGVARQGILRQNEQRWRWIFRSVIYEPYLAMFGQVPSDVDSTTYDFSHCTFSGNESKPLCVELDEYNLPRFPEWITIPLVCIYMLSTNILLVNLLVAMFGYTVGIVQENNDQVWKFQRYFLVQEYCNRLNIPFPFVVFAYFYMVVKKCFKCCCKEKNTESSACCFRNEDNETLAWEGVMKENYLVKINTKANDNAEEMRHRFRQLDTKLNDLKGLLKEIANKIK
# T3 sequence (O35433 whole entry): as the sequence (O35433 whole entry) above
# T2 sequence (O35433 whole entry): as above
compound,measurement,setting,value
Nc1ncnc2c1ncn2[C@@H]1O[C@H](COP(=O)(O)OP(=O)(O)OP(=O)(O)O)[C@@H](O)[C@H]1O [ATP],response of membrane potential to a bolus of agonist,[1],"depolarization, spiking, and repolarization"
same,stimulation of hippocampal neurons lacking the cognate exogenous receptor,[2],"None of the three agonists, including ATP, was able to stimulate"
COc1cc(COC(=O)Oc2ccc(CNC(=O)CCCC/C=C/C(C)C)cc2OC)c([N+](=O)[O-])cc1OC [DMNB-capsaicin],action potential frequency after light pulse,[3],15-40 Hz
same,biological activity due to chemical or enzymatic decomposition of the caged compound,[3],No trace of biological activity
same,duration of window of activity,[3],"2,651±383 ms"
same,lag of onset of activity behind optical stimulus,[3],"5,035±2,061 ms"
same,membrane potentials and transmembrane conductances in presence of caged ligand without light,[3],unaffected
same,response on repeated photostimulation of the same neuron,[3],did not attenuate
COc1cc(CNC(=O)CCCC/C=C/C(C)C)ccc1O [capsaicin],stimulation of hippocampal neurons lacking the cognate exogenous receptor,[2],"None of the three agonists, including ATP, was able to stimulate"
same,behavior elicited in C. elegans,[4],avoidance behaviors
same,response of membrane potential to a bolus of agonist,"[5]; 50 nM capsaicin, 1-ml bolus, whole-cell current clamp, 50 μM AP-5 plus 10 μM CNQX","depolarization, spiking, and repolarization"
same,peak spike rate (firing frequency),"[5]; current clamp, sliding 200-ms windows, increasing agonist concentration, 382 agonist applications to 60 neurons",40 Hz
"CC(C)[C@@H]1CC[C@@H](C)C[C@H]1O [menthol, [1R,2S,5R]-5-methyl-2-[1-methylethyl]cyclo-hexanol]",stimulation of hippocampal neurons lacking the cognate exogenous receptor,[2],"None of the three agonists, including ATP, was able to stimulate"
same,response of membrane potential to a bolus of agonist,"[6]; 100 μM menthol, 1-ml bolus, whole-cell current clamp, 50 μM AP-5 plus 10 μM CNQX","depolarization, spiking, and repolarization"
same,EC50,"[6]; whole-cell voltage clamp, holding potential −65 mV, results not shown, read-out: half-maximal response",150 µM
"P3-(1-(4,5-dimethoxy-2-nitrophenyl)ethyl) (DMNPE) ester of ATP [DMNPE-ATP]",duration of window of activity,[7]; [8],"2,456±1,273 ms"
same,lag period between optical stimulus and window of activity,[7]; [8],"1,136±96 ms"
same,membrane potentials and transmembrane conductances in presence of caged ligand without light,"[7]; 1 mM DMNPE-ATP, whole-cell current- or voltage-clamp",unaffected
same,biological activity due to chemical or enzymatic decomposition of the caged compound,"[7]; recordings lasting for >30 min, 1 mM",No trace of biological activity
